Source: patent US4272541A, “7,8 and 7-8 Substituted 4,5α-epoxymorphinan-6-one compounds, and methods of treating pain and drug dependence with them” (Miles Laboratories, Inc., priority 1979, dated 1981)

Legend:
[1] = Telford et al. 1961; Yeh et al. 1976; cited from earlier work
[2] = tested on: Anti-Peristaltic Effects Of Morphine; test: Charcoal meal test, antagonist test (ability to antagonize the anti-peristaltic effects of morphine); assay type: in vivo, mice (albino females, CFW strain); conditions: for Percent Reversal (S.E.) Of Anti-Peristaltic Effects Of Morphine: morphine 8 mg/kg, naloxone 10 mg/kg = 100%; for antagonist properties: in words, charcoal meal tests
Method: (§1) The agonist and antagonist effects of TR-5088, reference compound TR-5128 and prior art compound 17-cyclopropylmethyl-4,5α-epoxy-3-hydroxymorphinan-6-one (TR-5118) were determined in mice by a modified procedure of Rodriguez and Villarreal (report on the 36th Annual Scientific Meeting Committee on the Problems of Drug Dependance, Mar. 10-14, 1974, Mexico City, D.F.).
(§2) Subjects and Procedure for Measuring Gastrointestinal Peristaltic Activity. The mice used were albino females of the CFW strain, weighing between 20 and 25 grams; ten animals per dose were used for each compound tested in each experiment except 20 animals were used in the tests of Compound 5088. Gastrointestinal peristaltic activity was measured using a modification of the charcoal meal method described by Macht and Baba-Gose (1931). Mice were deprived of food 18 hours before the administration of the charcoal meal. […] This meal consisted of an aqueous suspension of 5% powdered tragacanth and 5% animal charcoal and was freshly made for each experiment. The charcoal meal was administered by gastric intubation, 0.25 ml per mouse. The animals were sacrificed by cervical dislocation. After the sacrifice, the whole gastrointestinal tract was rapidly removed and freed of epiploon. Then the entire length of intestine was hung upon a small hook at the level of the pylorus. In order to standardize the tension of the intestine, a 5 g weight was hung at the level of the ileocecal valve. Gastrointestinal peristaltic activity was then determined by measuring the distance the charcoal traveled from the pylorus.
(§3) Drugs. Morphine hydrochloride, naloxone hydrochloride or test compounds were each dissolved in distilled water with their concentrations adjusted so that the volume of injection was 10 ml/kg. Doses are expressed in terms of the salts.
Determination of Ability of Test Compounds to Antagonize the Anti-Peristaltic Effects of Morphine (Antagonist test).
Morphine (8 mg/kg) was given s.c. at time 0, charcoal meal was given p.o. at time 15 min, naloxone or test compound was given s.c. at 30 min, and the animals were sacrificed at time 45 min. Naloxone is the standard of reference and its maximum effect (at 10 mg/kg) to antagonize the antiperistaltic effects of morphine is assigned the value of 100%; test compounds are expressed as % of maximum naloxone antagonism.

[3] = tested on: Peristalsis; test: Charcoal meal test, agonist test (ability of test compound to directly inhibit peristalsis); assay type: in vivo, mice (albino females, CFW strain); conditions: for inhibition at 0.01 mg/kg / inhibition at 0.1 mg/kg / inhibition at 1 mg/kg / inhibition at 10 mg/kg / inhibition at 100 mg/kg: Mus musculus, sc, morphine 8 mg/kg = 100%, read-out: Percent Inhibition of Peristalsis; for inhibition at 0.01 mg/kg: 0.01 mg/kg s.c.; for inhibition at 0.1 mg/kg: 0.1 mg/kg s.c.; for inhibition at 1 mg/kg: 1.0 mg/kg s.c.; for inhibition at 10 mg/kg: 10.0 mg/kg s.c.; for inhibition at 100 mg/kg: 100.0 mg/kg s.c.; for inhibition of peristalsis / constipating side effect: in words, analysis of variance, comparison of compounds
Method: as §1, §2, §3
Morphine (8 mg/kg), test compound, or saline control was administered subcutaneously (s.c.), at time 0, the charcoal meal was administered by mouth (p.o.) at time 15 min, water (10 ml/kg) was administered s.c. at time 30 min, and the animals were sacrificed at time 45 min. The saline control value represents 0% inhibition and the morphine value represents 100% inhibition. All test compounds had values between saline and morphine, and results are expressed as % inhibition compared to morphine.
The data were subjected to analysis of variance. Also the Scheffe test, a statistical test that allows for multiple comparison, was performed.

[4] = tested on: writhing; test: Acetic acid mouse writhing test (analgesic effects); assay type: in vivo, mice (male CD-1); conditions: for ED50: Mus musculus, sc, 0.25 h, mice, subcutaneous, acetic acid i.p. 15 minutes post drug, Table I, read-out: ED50
Method: (A) Analgesic effects upon mice (acetic acid writhing test).
TEST A. ACETIC ACID MOUSE WRITHING TEST
The analgesic effects of test compounds were determined in mice by use of the acetic acid writhing test described by B. J. R. Whittle, Brit. J. Pharmacol., 22:246 (1964). In this test at least three groups of five male CD-1 mice (18-22 g) each were given subcutaneous doses of the test drug dissolved in either distilled water or distilled water acidified with HCl depending on the solubility of the compound. In all cases, 0.4 milliliter of a 0.5% V/V acetic acid in distilled water solution was administered intraperitoneally 15 minutes post drug. The number of writhes in a 20 min. interval beginning 5 minutes after the acetic acid injection were determined and compared with the number of writhes in control groups which had received only acetic acid.
Percent inhibition of writhing was calculated as: [formula]
The ED50 dose, i.e., the dose required to reduce the number of writhes by 50%, was determined graphically from a plot of % inhibition as a probit versus log dose. Confidence limits of 95% were calculated on the basis of those results falling in the range 16-84% inhibition. See Litchfield, J. T. and Wilcoxon, F., J. Pharmacol. Exp. Ther., 96, 99-113, (1949).

[5] = tested on: morphine effect; test: Narcotic antagonist activity, modified rat tail flick test; assay type: in vivo, rats (male albino Wistar); conditions: Rattus norvegicus, ip; rats, test drug i.p. 10 minutes before ED80 dose of morphine s.c.; Table I; read-out: AD50 (the source's name)
Method: (B) Narcotic antagonist activity in rats (modified rat tail flick test).
TEST B. EVALUATION OF NARCOTIC ANTAGONIST ACTIVITY
The narcotic antagonist effects of test compounds were determined by a modification of the rat tail flick procedure of Harris and Pierson (J. Pharmacol. Exp. Ther. 143,141 [1964]).
Male albino Wistar rats (100-120 g) were used for this study. A rat's tail is so placed so as to cover a photocell. Heat is applied by a lamp in a reflector with a timer being connected to the lamp and photocell so that the timer goes on when the light is turned on and is turned off when the photocell is uncovered. A rheostat, incorporated into a heating lamp is used to adjust the intensity of the light falling on the tail of the rat such that the rat's control reaction time is from two to four seconds. Animals with a control reaction time outside this range are rejected. The rheostat adjustment is made only if a significant proportion (more than 2 out of every 10 rats) of the reaction times are outside the range of two to four seconds. Groups of five rats were used each time, and two control times were determined at 60 and 30 minutes prior to subcutaneous injection of the drug.
Thirty minutes after the last control run the test drug was given intraperitoneally. This was followed ten minutes later by an ED80 dose of morphine subcutaneously. The animals were retested at 20 minutes after the morphine injection. Control animals were given vehicle and morphine only. The data were calculated as follows: [formula]
The data were plotted on log-probit paper and AD50 values, i.e., the dose required to inhibit the morphine effect by 50% within 95% confidence limits, were determined by the method of Litchfield and Wilcoxon.

[6] = Gates and Montzka 1964; cited from earlier work

SMILES | Percent Reversal (S.E.) Of Anti-Peristaltic Effects Of Morphine ([2]; 0.01 mg/kg s.c.) | Percent Reversal (S.E.) Of Anti-Peristaltic Effects Of Morphine ([2]; 0.10 mg/kg s.c.) | Percent Reversal (S.E.) Of Anti-Peristaltic Effects Of Morphine ([2]; 1.0 mg/kg s.c.) | Percent Reversal (S.E.) Of Anti-Peristaltic Effects Of Morphine ([2]; 10.0 mg/kg s.c.) | Percent Reversal (S.E.) Of Anti-Peristaltic Effects Of Morphine ([2]; 3.1 mg/kg s.c.) | Percent Reversal (S.E.) Of Anti-Peristaltic Effects Of Morphine ([2]; 31.0 mg/kg s.c.) | antagonist properties [2] | inhibition at 0.01 mg/kg [3] [%] | inhibition at 0.1 mg/kg [3] [%] | inhibition at 1 mg/kg [3] [%] | inhibition at 10 mg/kg [3] [%] | inhibition at 100 mg/kg [3] [%] | ED50 [4] [mg/kg] | ED50 [5] [mg/kg] | also measured
C=CCN1CC[C@]23c4c5ccc(OC)c4O[C@H]2C(=O)CC[C@H]3[C@H]1C5 [7,8-dihydro-N-allylnorcodeinone, 17-allyl-4,5α-epoxy-3-methoxymorphinan-6-one] | – | – | – | – | – | – | – | – | – | – | – | – | – | – | analgesic properties [1]: weak analgesic properties
C=CCN1CC[C@]23c4c5ccc(O)c4O[C@H]2C(=O)CC[C@@]3(O)[C@H]1C5 [Naloxone] | 14.5(±3.0) % | 39.1(±4.2) % | 69.8(±8.0) % | 100.0(±5.9) % | – | – | – | – | – | – | – | – | – | – | –
C[C@H]1CC(=O)[C@@H]2Oc3c(O)ccc4c3[C@@]23CCN(CC2CCC2)[C@H](C4)[C@H]13.Cl [TR-5088, 17-Cyclobutylmethyl-4,5α-epoxy-3-hydroxy-8β-methylmorphinan-6-one Hydrochloride] | – | – | – | – | 54.6(±6.7) % | 44.7(±6.2) % | dramatically increased antagonist properties | 13.5 | 39.8 | 50.7 | 54 | 63.5 | 0.67 | 1.9 | Percent Reversal (S.E.) Of Anti-Peristaltic Effects Of Morphine ([2]; 0.031 mg/kg s.c.): 12.4(±5.8) %; Percent Reversal (S.E.) Of Anti-Peristaltic Effects Of Morphine ([2]; 0.31 mg/kg s.c.): 27.7(±7.3) %; inhibition of peristalsis / constipating side effect ([3]; Hydrochloride): inhibit peristalsis to a statistically significantly less degree than TR-5128; inhibition of peristalsis / constipating side effect ([3]; listed as 17-cyclobutylmethyl-4,5α-epoxy-3-hydroxy-8β-methylmorphinan-6-one, Hydrochloride): less side effects; analgesic activity ([4]; in words): especially effective analgesics
O=C1CC[C@H]2[C@H]3Cc4ccc(O)c5c4[C@@]2(CCN3CC2CC2)[C@H]1O5 [TR-5118, 17-cyclopropylmethyl-4,5α-epoxy-3-hydroxymorphinan-6-one] | – | – | – | – | 56.6(±8.0) % | 69.3(±6.4) % | mixed agonist side effects and antagonist properties | 24.7 | 25.4 | 40.8 | 44.8 | 47.1 | 1.34 | 0.19 | inhibition of peristalsis / constipating side effect [3]: inhibit peristalsis to a statistically significantly less degree than TR-5128; narcotic antagonist activity [6]: had narcotic antagonist activity
O=C1CC[C@H]2[C@H]3Cc4ccc(O)c5c4[C@@]2(CCN3CC2CCC2)[C@H]1O5 [TR-5128, 17-Cyclobutylmethyl-4,5α-epoxy-3-hydroxymorphinan-6-one] | 0.0% | 8.3(±4.6) % | 13.5(±7.3) % | 19.1(±5.8) % | – | 20.4(±5.3) % | so low an antagonist ability as to be ineffective in the practical sense | 17.5 | 35.6 | 50.7 | 76.3 | 84.2 | 0.07 | 1.7 | –
